Counter-ions that a name gives are not always drawn. Like-named read-outs stand apart in the source and are kept apart here.
Legend:
[1] = test system: beige adipocytes; experiment: Lipolysis validation assays of primary hits at three concentrations; format: cell-based, human; set-up: % of Control (1) / % of Control (2) / % of Control (3) / % of Control (4): unit of the concentration uncertain; details: for activity at 2.2 µM / activity at 6.7 µM / activity at 20 µM / activity at 2200 µM: Homo sapiens, Adipocyte, 24 h; for activity at 2.2 µM: Conc. 2.2 µM; for activity at 6.7 µM: Conc. 6.7 µM; for activity at 20 µM: Conc. 20 µM; for activity at 2200 µM: Conc. 2.2 mM
Method: (§1) ADSCs were seeded at 5000 cell/cm^2 in 12-well plates, grown for 5 days and then induced to differentiate into GC for 20 days. Prior to the assay, cells were washed in DPBS twice and then incubated with DMEM with 2% fatty-acid free BSA (Santa Crus, sc-500949) and Triascin C (5 μM). Cells were treated with forskolin (20 μM) for indicated time periods and supernatant samples were collected. Lipolysis assay was performed with free glycerol reagent (Sigma, F6428-40ML), according to manufacturer instructions.
(§2) Lipolysis assays were performed after 24 hours of drug treatment by measuring free glycerol released in the 384-well format, using the procedure described above. Absorbance for each compound was normalized to untreated control samples for each plate and calculated as a percent of the control. Cut-offs for “activating” and “inhibiting” compounds were set at 2-fold. Validation assays were performed for select compounds at a range of concentration doses.
Next, lipolysis assays were performed for all 111 compounds identified in the primary screen at three different concentrations, of which twenty-four were selected for further analysis based on their newness and/or reproducibility.

[2] = test system: beige adipocytes; experiment: High-throughput primary screen, lipolysis assay (glycerol release), 384-well; format: cell-based, human; details: 20 μM, 24 hours of drug treatment, vs untreated beige adipocytes
Method: as §1, with “Prior to the assay, cells were washed in DPBS twice and then incubated with DMEM with 2% fatty-acid free BSA (Santa Crus, sc-500949) and Triascin C (5 μM).” left out
ADSCs were plated in 384-well plates at a density of 5000 cell/cm2 and grown to confluency over ˜4 days. Cells were then differentiated to beige adipocytes using B-8 medium for 21 days. All cell culture and incubations in the 384-well format were done at 37° C. and 5% CO2. […] The use of FDA-approved drugs may allow for re-purposing for therapeutic use.
as §2

Row | SMILES | activity at 2.2 µM ([1]; read-out: % of Control (2)) | activity at 2.2 µM ([1]; read-out: % of Control (4)) | activity at 6.7 µM ([1]; read-out: % of Control (1)) | activity at 6.7 µM ([1]; read-out: % of Control (2)) | activity at 6.7 µM ([1]; read-out: % of Control (3)) | activity at 6.7 µM ([1]; read-out: % of Control (4)) | activity at 20 µM ([1]; read-out: % of Control (1)) | activity at 20 µM ([1]; read-out: % of Control (2)) | activity at 20 µM ([1]; read-out: % of Control (3)) | activity at 20 µM ([1]; read-out: % of Control (4)) | activity at 2200 µM ([1]; read-out: % of Control (1)) | activity at 2200 µM ([1]; read-out: % of Control (3)) | % Control (relative levels of glycerol release) [2] | further results
1 | CC(C)C[C@H](NC(=O)CNC(=O)c1cc(Cl)ccc1Cl)B1OC(=O)C(CC(=O)O)(CC(=O)O)O1 [MLN9708] | 139% | 114% | 198% | 228% | 176% | 115% | 138% | 173% | 117% | 90% | 251% | 205% | – | –
2 | CC(C)NCC(O)c1cc(O)cc(O)c1 (centres unmarked) [Metaproterenol Sulfate] | 298% | 305% | 311% | 412% | 293% | 283% | 305% | 293% | 308% | 274% | 327% | 291% | – | –
3 | Cc1[nH]c(=O)c(C#N)cc1-c1ccncc1 [Milrinone] | 117% | 170% | 236% | 154% | 116% | 142% | 168% | 205% | 171% | 185% | 99% | 126% | – | –
4 | CO[C@H]1CC[C@@H](O[C@H]2C[C@H]([C@]3(C)CC[C@]4(C[C@H](O)[C@@H](C)[C@@H]([C@@H](C)/C=C(\C)C(=O)[C@H](C)C[C@H](C)C(=O)O)O4)O3)O[C@]3(O[C@@H]([C@H]4O[C@@](O)(CO)[C@H](C)C[C@@H]4C)C[C@@H]3C)[C@@H]2C)O[C@@H]1C [Nanchangmycin] | – | – | – | – | – | – | – | – | – | – | – | – | – | % of Control (1) ([1]; Conc. 2.2 (unit uncertain)): 259.29 % of Control; % of Control (2) ([1]; Conc. 2.2 (unit uncertain)): 209.65 % of Control; % of Control (3) ([1]; Conc. 2.2 (unit uncertain)): 192.42 % of Control; % of Control (4) ([1]; Conc. 2.2 (unit uncertain)): 124.48 % of Control; % of Control (1) ([1]; Conc. 6.7 (unit uncertain)): 196.07 % of Control; % of Control (2) ([1]; Conc. 6.7 (unit uncertain)): 104.94 % of Control; % of Control (3) ([1]; Conc. 6.7 (unit uncertain)): 147.69 % of Control; % of Control (4) ([1]; Conc. 6.7 (unit uncertain)): 106.09 % of Control; % of Control (1) ([1]; Conc. 20 (unit uncertain)): 147.14 % of Control; % of Control (2) ([1]; Conc. 20 (unit uncertain)): 168.94 % of Control; % of Control (3) ([1]; Conc. 20 (unit uncertain)): 98.9 % of Control; % of Control (4) ([1]; Conc. 20 (unit uncertain)): 168.85 % of Control
5 | CNC(=O)c1ccc(C)c(-n2c(C)cc(OCc3ccc(F)cc3F)c(Br)c2=O)c1 [PH-797804] | – | – | – | – | – | – | – | – | – | – | – | – | 38.23 % control | –
6 | CNC[C@H](O)c1cccc(O)c1 [Phenylephrine HCl] | 253% | 240% | 271% | 266% | 240% | 232% | 353% | 373% | 248% | 232% | 338% | 221% | – | –
7 | CC(C)NC[C@H](O)c1ccc(O)c(O)c1.O=C(O)C(O)C(O)C(=O)O [R(+)-Isoproterenol (+)-bitartrate] | – | – | – | – | – | – | – | – | – | – | – | – | 363.04 % control | –
8 | COC1(C2=NCCN2)COc2ccccc2O1.Cl (centres unmarked) [RX 821002 hydrochloride] | – | – | – | – | – | – | – | – | – | – | – | – | 30.77 % control | –
9 | CC(C)NC[C@@H](O)c1ccc(O)c(O)c1.O=C(O)C(O)C(O)C(=O)O [S(−)-Isoproterenol (+)-bitartrate] | – | – | – | – | – | – | – | – | – | – | – | – | 367.84 % control | –
10 | Oc1ccc(-c2nc(-c3ccc(F)cc3)c(-c3ccncc3)[nH]2)cc1 [SB202190 (FHPI)] | – | – | – | – | – | – | – | – | – | – | – | – | 34.88 % control | –
11 | C[n+]1cc2c3c(ccc2c2ccc4cc5c(cc4c21)OCO5)OCO3 [Sanguinarine] | 142% | 121% | 218% | 198% | 128% | 101% | 185% | 155% | 133% | 160% | 179% | 71.3% | – | –

Reference: patent US20220079993A1, “NON-NATURALLY OCCURRING THERMOGENIC ADIPOCYTES, METHODS OF MAKING, AND METHODS OF USE THEREOF” (University of Georgia Research Foundation, Inc., priority 2019, published 2022)
